Results published in US6737383B1, “Herbicidal oxadiazolidines” (priority 1999, dated 2004).

How the values were obtained:
wheat = assay: Test B pre/postemergence wheat; type: in vivo, Triticum aestivum
Outline: (§1)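 Herbicidal effect was estimated by eye on a ten-point control scale after plants spent twelve to sixteen days in a greenhouse following soil or foliar treatment. Foliar sprays targeted plants at one to four leaves; all doses were formulated in a non-phytotoxic solvent with surfactant.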

crabgrass = assay: Test B pre/postemergence crabgrass; type: in vivo, Digitaria sanguinalis
Outline: as §1

velvetleaf = assay: Test B pre/postemergence velvetleaf; type: in vivo, Abutilon theophrasti
Outline: as §1

giant foxtail = assay: Test B pre/postemergence giant foxtail; type: in vivo, Setaria faberii
Outline: as §1

sugar beet = assay: Test B pre/postemergence sugar beet; type: in vivo, Beta vulgaris
Outline: as §1

surinam grass = assay: Test B pre/postemergence surinam grass; type: in vivo, Brachiaria decumbens
Outline: as §1

corn = assay: Test B pre/postemergence corn; type: in vivo, Zea mays
Outline: as §1

cocklebur = assay: Test B pre/postemergence cocklebur; type: in vivo, Xanthium strumarium
Outline: as §1

purple nutsedge = assay: Test B pre/postemergence purple nutsedge; type: in vivo, Cyperus rotundus
Outline: as §1

soybean = assay: Test B pre/postemergence soybean; type: in vivo, Glycine max
Outline: as §1

wild oat = assay: Test B pre/postemergence wild oat; type: in vivo, Avena fatua
Outline: as §1

morningglory = assay: Test B pre/postemergence morningglory; type: in vivo, Ipomoea hederacea
Outline: as §1

rape = assay: Test B pre/postemergence rape; type: in vivo, Brassica napus
Outline: as §1

pigweed = assay: Test B pre/postemergence pigweed; type: in vivo, Amaranthus retroflexus
Outline: as §1

bedstraw = assay: Test B pre/postemergence bedstraw; type: in vivo, Galium aparine
Outline: as §1

blackgrass = assay: Test B pre/postemergence blackgrass; type: in vivo, Alopecurus myosuroides
Outline: as §1

[1] = Preemergence, Rate 62 g/ha, scale of 0 to 10 where 0 is no effect and 10 is complete control
[2] = Preemergence, Rate 250 g/ha, scale of 0 to 10 where 0 is no effect and 10 is complete control
[3] = Preemergence, Rate 500 g/ha, scale of 0 to 10 where 0 is no effect and 10 is complete control
[4] = Rate 125 g/ha, Preemergence, scale of 0 to 10 where 0 is no effect and 10 is complete control
[5] = Rate 500 g/ha, Postemergence, scale 0 to 10, 0 no effect, 10 complete control
[6] = Rate 62 g/ha, Postemergence, scale of 0 to 10 where 0 is no effect and 10 is complete control
[7] = Rate 125 g/ha, Postemergence, scale 0 to 10

COC(=O)C=CCn1c(=O)on(C(=O)N(c2ccc(F)cc2)C(C)C)c1=O [Compound 263]
1: Soybean plant response rating (soybean; [5])
4: Plant response rating (0 to 10; 0 is no effect, 10 is complete control), Morningglory (morningglory; Rate 250 g/ha, Postemergence)
3: Plant response rating, Velvetleaf (velvetleaf; [3]) | Giant foxtail plant response rating (giant foxtail; [5]) | Plant response rating (0 to 10; 0 is no effect, 10 is complete control), Blackgrass (blackgrass; Rate 250 g/ha, Postemergence)
5: Blackgrass plant response rating (blackgrass; [5])
2: Wheat plant response rating (wheat; [5]) | Plant response rating, Crabgrass (crabgrass; [3]) | Crabgrass plant response rating (crabgrass; [5]) | Velvetleaf plant response rating (velvetleaf; [5]) | Giant foxtail plant response rating (giant foxtail; [1])
9: Giant foxtail plant response rating (giant foxtail; [2]) | Plant response rating, Giant foxtail (giant foxtail; [3]) | Giant foxtail plant response rating (giant foxtail; [4])
7: Morningglory plant response rating (morningglory; [5])
0: Wheat plant response rating (wheat; [1]) | Wheat plant response rating (wheat; [2]) | Plant response rating, Wheat (wheat; [3]) | Wheat plant response rating (wheat; [4]) | Crabgrass plant response rating (crabgrass; [1]) | Crabgrass plant response rating (crabgrass; [2]) | Crabgrass plant response rating (crabgrass; [4]) | Plant response rating (0 to 10; 0 is no effect, 10 is complete control), Crabgrass (crabgrass; Rate 250 g/ha, Postemergence) | Velvetleaf plant response rating (velvetleaf; [1]) | Velvetleaf plant response rating (velvetleaf; [2]) | Velvetleaf plant response rating (velvetleaf; [4]) | Plant response rating (0 to 10; 0 is no effect, 10 is complete control), Giant foxtail (giant foxtail; Rate 250 g/ha, Postemergence) | Sugarbeets plant response rating (sugar beet; [1]) | Sugarbeets plant response rating (sugar beet; [2]) | Plant response rating, Sugarbeets (sugar beet; [3]) | Sugarbeets plant response rating (sugar beet; [4]) | Sugarbeets plant response rating (sugar beet; [5]) | B. signalgrass plant response rating (surinam grass; [1]) | B. signalgrass plant response rating (surinam grass; [2]) | Plant response rating, B. signalgrass (surinam grass; [3]) | B. signalgrass plant response rating (surinam grass; [6]) | B. signalgrass plant response rating (surinam grass; Rate 125 g/ha, Postemergence, scale 0 (no effect) to 10 (complete control)) | B. signalgrass plant response rating (surinam grass; [4]) | Plant response rating (0 to 10; 0 is no effect, 10 is complete control), B. signalgrass (surinam grass; Rate 250 g/ha, Postemergence) | B. signalgrass plant response rating (surinam grass; [5]) | Corn plant response rating (corn; [1]) | Corn plant response rating (corn; [2]) | Plant response rating, Corn (corn; [3]) | Corn plant response rating (corn; [6]) | Corn plant response rating (corn; [7]) | Corn plant response rating (corn; [4]) | Plant response rating (0 to 10; 0 is no effect, 10 is complete control), Corn (corn; Rate 250 g/ha, Postemergence) | Corn plant response rating (corn; [5]) | Cocklebur plant response rating (cocklebur; [1]) | Cocklebur plant response rating (cocklebur; [2]) | Cocklebur plant response rating (cocklebur; [6]) | Cocklebur plant response rating (cocklebur; [7]) | Cocklebur plant response rating (cocklebur; [4]) | Plant response rating (0 to 10; 0 is no effect, 10 is complete control), Cocklebur (cocklebur; Rate 250 g/ha, Postemergence) | Cocklebur plant response rating (cocklebur; [5]) | Nutsedge plant response rating (purple nutsedge; [1]) | Nutsedge plant response rating (purple nutsedge; [2]) | Plant response rating, Nutsedge (purple nutsedge; [3]) | Nutsedge plant response rating (purple nutsedge; [4]) | Plant response rating (0 to 10; 0 is no effect, 10 is complete control), Nutsedge (purple nutsedge; Rate 250 g/ha, Postemergence) | Nutsedge plant response rating (purple nutsedge; [5]) | Soybean plant response rating (soybean; [1]) | Soybean plant response rating (soybean; [2]) | Plant response rating, Soybean (soybean; [3]) | Soybean plant response rating (soybean; [4]) | Wild oats plant response rating (wild oat; [1]) | Wild oats plant response rating (wild oat; [2]) | Plant response rating, Wild oats (wild oat; [3]) | Wild oats plant response rating (wild oat; [4]) | Wild oats plant response rating (wild oat; [5]) | Morningglory plant response rating (morningglory; [1]) | Morningglory plant response rating (morningglory; [2]) | Plant response rating, Morningglory (morningglory; [3]) | Morningglory plant response rating (morningglory; [4]) | Rape plant response rating (rape; [1]) | Rape plant response rating (rape; [2]) | Plant response rating, Rape (rape; [3]) | Rape plant response rating (rape; [4]) | Plant response rating (0 to 10; 0 is no effect, 10 is complete control), Rape (rape; Rate 250 g/ha, Postemergence) | Rape plant response rating (rape; [5]) | Redroot pigweed plant response rating (pigweed; [1]) | Redroot pigweed plant response rating (pigweed; [2]) | Plant response rating, Redroot pigweed (pigweed; [3]) | Redroot pigweed plant response rating (pigweed; [4]) | Plant response rating (0 to 10; 0 is no effect, 10 is complete control), Redroot pigweed (pigweed; Rate 250 g/ha, Postemergence) | Redroot pigweed plant response rating (pigweed; [5]) | Bedstraw plant response rating (bedstraw; [1]) | Bedstraw plant response rating (bedstraw; [2]) | Plant response rating, Bedstraw (bedstraw; [3]) | Bedstraw plant response rating (bedstraw; [6]) | Bedstraw plant response rating (bedstraw; [7]) | Bedstraw plant response rating (bedstraw; [4]) | Blackgrass plant response rating (blackgrass; [1]) | Blackgrass plant response rating (blackgrass; [2]) | Plant response rating, Blackgrass (blackgrass; [3]) | Blackgrass plant response rating (blackgrass; [6]) | Blackgrass plant response rating (blackgrass; [7]) | Blackgrass plant response rating (blackgrass; [4])
